# Results reported in paper PMC4612330 (Cancer Chemotherapy and Pharmacology, 2015).
# Several values for one entry are separate records, joined by “and”; a condition that tells them apart may be missing. Equal values may be shown once. Read-outs that look alike come from different tables or passages of the source.
# Legend:
# [1] = phase 1 plasma pharmacokinetics, noncompartmental; conditions: for AUCt: carboplatin AUC 6 mg/mL min IV day 3, last sampling 21 h
# Description: Six cycles of therapy were planned.
# Plasma samples were stored at −20 °C until shipment to AbbVie. […] Plasma concentrations of carboplatin were determined using an inductively coupled plasma mass spectrometry. Standard pharmacokinetic parameters were determined using non-compartmental methods.
# [2] = tested on: Japanese patients with NSCLC; assay: phase 1 anti-tumor response (RECIST version 1.1) of veliparib plus carboplatin and paclitaxel; assay type: in vivo, human
# Description: A CT scan of the full chest and abdomen with images of the liver and adrenal glands was performed for all tumor assessments at screening (within 3 weeks prior to registration) and at the end of every 2 cycles (6 weeks). Tumor assessments were performed within 7 days of the scheduled date.
# [3] = parameters: method as in printed; conditions: ref not given; cited from earlier work
# [4] = tested on: patients with triple-negative breast cancer; conditions: with carboplatin and paclitaxel; cited from earlier work
# PARP activity in PBMCs = conditions: 50 mg, maintained for 24 h in 3 subjects; cited from earlier work
# [5] = tested on: PARP activity in tumor biopsies; conditions: cited from earlier work; for PARP inhibition in tumor biopsies, average: 50 mg
# [6] = in humans; cited from earlier work
# [7] = parameters: method as in printed; conditions: ref not given; cited from earlier work; remark: listed apart in the source
# [8] = tested on: patients with advanced or metastatic NSCLC; conditions: cited from earlier work
# major drug transporters = conditions: at therapeutic doses; cited from earlier work
# [9] = tested on: major cytochrome P450 enzymes; conditions: at therapeutic doses; cited from earlier work
# lung cancer tumor models = conditions: preclinical lung cancer tumor models; cited from earlier work
# [10] = tested on: patients with triple-negative breast cancer; conditions: veliparib and carboplatin plus standard neoadjuvant therapy; cited from earlier work
# [11] = tested on: patients with advanced or metastatic solid tumors; conditions: cited from earlier work
# [12] = tested on: patients with newly diagnosed ovarian cancer; parameters: method as in GOG 9923; conditions: with carboplatin, paclitaxel, and bevacizumab; study ongoing; ref GOG 9923; cited from earlier work
# [13] = plus carboplatin and paclitaxel
# [14] = carboplatin AUC 6 mg/mL min IV day 3, all patients N = 12, mean ± SD
# [15] = carboplatin AUC 6 mg/mL min IV day 3, with veliparib 40 mg BID n = 3, mean ± SD
# [16] = carboplatin AUC 6 mg/mL min IV day 3, with veliparib 80 mg BID n = 3, mean ± SD
# [17] = carboplatin AUC 6 mg/mL min IV day 3, with veliparib 120 mg (BID) n = 6, mean ± SD
structure (smiles),measurement,setting,value
"CC(=O)O[C@H]1C(=O)[C@@]2(C)[C@H]([C@H](OC(=O)c3ccccc3)[C@]3(O)C[C@H](OC(=O)[C@H](O)[C@@H](NC(=O)c4ccccc4)c4ccccc4)C(C)=C1C3(C)C)[C@]1(OC(C)=O)CO[C@@H]1C[C@@H]2O [Paclitaxel, reference compound]",T max,"[1]; human, in vivo, iv",3.0 ± 0.0 h
same,AUC(0-t),"[1]; human, in vivo, iv, 200 mg/m2, AUCt",24800 ± 2860 ng·h/mL
same,AUC(0-inf),"[1]; human, in vivo, iv, 200 mg/m2, AUC∞",25500 ± 2890 ng·h/mL
same,Cmax,"[1]; human, in vivo, iv, 200 mg/m2, C max",6840 ± 1200 ng/mL
same,Tmax,"[1]; human, in vivo, iv, 200 mg/m2, T max",2.9 ± 0.3 h
same,Tmax,"[1]; human, in vivo, iv, T max",3.1 ± 0.2 h
"C[C@]1(c2nc3c(C(N)=O)cccc3[nH]2)CCCN1 [Veliparib, 2-[(R)-2-methylpyrrolidin-2-yl]-1H-benzimidazole-4-carboxamide]",patients who developed progressive disease (PD),[2]; 80 mg BID,One
same,median PFS,[2]; all dose levels,92 days
same,patients who achieved PR at the first CT scan,[2]; all dose levels,3
same,patients who achieved a PR,"[2]; all dose levels, 11 patients",Six
same,overall response rate,"[2]; efficacy population, 11 patients",55%
same,solubility,[3],highly soluble
same,dose cleared,[4],up to 200 mg BID
same,inhibition of PARP activity in PBMCs,PARP activity in PBMCs,Complete inhibition
same,"PARP inhibition in tumor biopsies, average",[5]; 3–6 h after dosing (N = 3),75%
same,"PARP inhibition in tumor biopsies, average",[5]; 24 h after dosing (N = 3),74%
same,inhibition of PARP activity in tumor biopsies,"[5]; single dose of 25 mg, 3–6 h after dosing, 3 subjects (one value each)",92% and 95% and 100%
same,AUC0–8/dose,"[1]; human, in vivo",31.4 ± 6.69 (ng h/mL)/mg
same,AUC∞/dose,"[1]; human, in vivo",44.2 ± 11.3 (ng h/mL)/mg
same,C max/dose,"[1]; human, in vivo",7.06 ± 1.29 (ng/mL)/mg
same,AUC0–8/dose,"[1]; human, in vivo, 40 mg",32.2 ± 9.24 (ng h/mL)/mg
same,AUC∞/dose,"[1]; human, in vivo, 40 mg",46.0 ± 16.8 (ng h/mL)/mg
same,C max/dose,"[1]; human, in vivo, 40 mg",8.18 ± 1.19 (ng/mL)/mg
same,AUC(0-t),"[1]; human, in vivo, 40 mg, AUC0–8",1290 ± 370 ng·h/mL
same,AUC(0-inf),"[1]; human, in vivo, 40 mg, AUC∞",1840 ± 671 ng·h/mL
same,Cmax,"[1]; human, in vivo, 40 mg, C max",327 ± 47.7 ng/mL
same,Tmax,"[1]; human, in vivo, 40 mg, T max",2.5 ± 1.3 h
same,AUC0–8/dose,"[1]; human, in vivo, 80 mg",26.7 ± 2.46 (ng h/mL)/mg
same,AUC∞/dose,"[1]; human, in vivo, 80 mg",35.0 ± 3.33 (ng h/mL)/mg
same,C max/dose,"[1]; human, in vivo, 80 mg",6.01 ± 0.35 (ng/mL)/mg
same,AUC(0-t),"[1]; human, in vivo, 80 mg, AUC0–8",2140 ± 197 ng·h/mL
same,AUC(0-inf),"[1]; human, in vivo, 80 mg, AUC∞",2800 ± 266 ng·h/mL
same,Cmax,"[1]; human, in vivo, 80 mg, C max",481 ± 27.8 ng/mL
same,Tmax,"[1]; human, in vivo, 80 mg, T max",3.3 ± 1.2 h
same,AUC0–8/dose,"[1]; human, in vivo, 120 mg",33.3 ± 6.34 (ng h/mL)/mg
same,AUC∞/dose,"[1]; human, in vivo, 120 mg",48.0 ± 9.72 (ng h/mL)/mg
same,C max/dose,"[1]; human, in vivo, 120 mg",7.03 ± 1.27 (ng/mL)/mg
same,dose proportionality of Cmax and AUC,"[1]; human, in vivo, 120 mg",approximately dose proportional
same,AUC(0-t),"[1]; human, in vivo, 120 mg, AUC0–8",3990 ± 796 ng·h/mL
same,AUC(0-inf),"[1]; human, in vivo, 120 mg, AUC∞",5760 ± 1170 ng·h/mL
same,Cmax,"[1]; human, in vivo, 120 mg, C max",844 ± 152 ng/mL
same,Tmax,"[1]; human, in vivo, 120 mg, T max",3 ± 1.1 h
same,"pharmacokinetic profile, Japanese versus Western populations",[1]; in vivo,generally comparable
same,elimination,[6],primarily eliminated by renal excretion
same,permeability,[7],permeable
same,Overall survival (OS),[8]; [13],11.1 months
same,median progression-free survival (PFS),[8]; [13],5.8 months
same,HR (PFS),"[8]; veliparib versus placebo, each plus carboplatin and paclitaxel",0.71
same,inhibition of major drug transporters,major drug transporters,not an inhibitor
same,inhibition of major cytochrome P450 enzymes,[9],not an inhibitor
same,effect on platinum-based chemotherapy,lung cancer tumor models,potentiates the effect of platinum-based chemotherapy
same,estimated pathologic complete response rate,[10],52%
same,maximum dose of veliparib,[11]; for 7 days in addition to standard doses of carboplatin and paclitaxel,120 mg BID
same,complete response (CR),[11]; phase 1 dose-escalation study,3%
same,"complete response (CR), patients",[11]; phase 1 dose-escalation study,2/68
same,partial response (PR),[11]; phase 1 dose-escalation study,16%
same,"partial response (PR), patients",[11]; phase 1 dose-escalation study,11/68
same,stable disease,[11]; phase 1 dose-escalation study,51%
same,"stable disease, patients",[11]; phase 1 dose-escalation study,35/68
same,RPTD,[11]; with standard doses of carboplatin and paclitaxel,100 mg BID
same,dose cleared,[12],≥ 150 mg BID
"N.N.O=C([O-])C1(C(=O)[O-])CCC1.[Pt+2] [Carboplatin, reference compound]",AUCt,"[1]; all patients N = 12, mean ± SD",92500 ± 6540 ng·h/mL
same,AUCt,"[1]; with veliparib 40 mg BID n = 3, mean ± SD",94100 ± 9910 ng·h/mL
same,AUCt,"[1]; with veliparib 80 mg BID n = 3, mean ± SD",95100 ± 5830 ng·h/mL
same,AUCt,"[1]; with veliparib 120 mg (BID) n = 6, mean ± SD",90300 ± 5450 ng·h/mL
same,AUC∞,[1]; [14],103000 ± 7670 ng·h/mL
same,C max,[1]; [14],22600 ± 2250 ng/mL
same,T max,[1]; [14],1.0 ± 0.0 h
same,AUC∞,[1]; [15],105000 ± 12300 ng·h/mL
same,C max,[1]; [15],22300 ± 2370 ng/mL
same,T max,[1]; [15],1.0 ± 0.0 h
same,AUC∞,[1]; [16],105000 ± 7140 ng·h/mL
same,C max,[1]; [16],24300 ± 1160 ng/mL
same,T max,[1]; [16],1.0 ± 0.0 h
same,AUC∞,[1]; [17],100000 ± 5730 ng·h/mL
same,C max,[1]; [17],22000 ± 2450 ng/mL
same,T max,[1]; [17],1.0 ± 0.0 h
same,"pharmacokinetics when co-administered with 40, 80, or 120 mg veliparib BID",[1]; day 3 of cycle 1,comparable
